According to patent US4119722A, “Method for control of fungi using 4-halo-5-aryl-1,2,3,-dithiazoles” (Chevron Research Company, priority 1977, dated 1978):

Tests used:
[1] = system: Botrytis cinerea; experiment: Botrytis cinerea control on detached horsebean leaves; assay type: in vivo; conditions: 40-ppm solution, dipped horsebean leaves, 3 to 5 days, 23.5° C
Experimental: The leaves were dipped into a 40-ppm solution of the test compound in acetone and water containing a small amount of a nonionic emulsifier, then taken out and placed in a petri plate lined with two pieces of filter paper. The leaves were allowed to dry while the filter paper was kept moist by adding water as required. The treated leaves were then inoculated with the spores of Botrytis cinerea fungus grown on potato dextrose agar. The plate was covered after inoculation and kept at 23.5° C. The filter-paper lining of the plate was kept saturated with water throughout the test. The rate of disease incidence was determined in 3 to 5 days, when the disease symptoms were fully evident on non-treated check leaves. The percentage disease control provided by the test compound was calculated as the percentage disease reduction based on the non-treated check leaves.

[2] = system: Erysiphe polygoni; experiment: Powdery Mildew control on bean seedlings; assay type: in vivo; conditions: 250-ppm spray, about 10 days
Source text: The powdery mildew test was made using bean seedlings (var. Bountiful) with well-developed primary leaves. The pathogen was Erysiphe polygoni. The bean seedlings were sprayed with a 250-ppm solution of the test compound in an acetone-water mixture containing a nonionic emulsifer. The treated plants were inoculated one day after spray application of the test compound with the pathogen. […] The rate of infection on the leaves was made after about 10 days. The percent disease control provided by a given test compound was based on the disease reduction relative to untreated check plants.

[3] = system: Aspergillus niger; experiment: Mycelia Inhibition; assay type: cell-based; conditions: 25° C., 24 hours
Experimental: (§1) The compounds of the present invention were evaluated for fungicidal effectiveness by means of a mycelial inhibition test. This test is designed to measure the fungitoxic acitvity of fungicidal chemicals in terms of their degree of inhibition of mycelium growth. Each compound to be tested was dissolved in acetone to 500 ppm concentration. Paper strips were innoculated with the particular mycelium growth by covering the paper with a potato dextrose broth culture of mycelial suspension. The innoculated papers were then placed on potato dextrose agar plates and sprayed by means of a micro sprayer with the fungicidal solution. The treated paper strips were incubated at 25° C. and data is taken after 24 hours. Fungicidal activities are measured by a zone of inhibited mycelial growth from the center of the paper strip. The effectiveness of the compounds tested for fungicidal activity is reported in Table VI in terms of the microgram/cm^2 for 99% control of the fungus.

[4] = system: Fusarium moniloforma; experiment: Mycelia Inhibition; assay type: cell-based; conditions: 25° C., 24 hours
Experimental: as §1

[5] = system: Rhizoctonia solani; experiment: Mycelia Inhibition; assay type: cell-based; conditions: 25° C., 24 hours
Experimental: as §1

[6] = system: Crabgrass (Digitaria sanguinalis); experiment: Post-emergent herbicidal test; assay type: in vivo; conditions: post-emergence, 504 h, 33 mcg/cm^2, 3 weeks, scale 0 (no phytotoxicity) to 100 (complete kill), read-out: Herbicidal Effectiveness (C)
Experimental: (§2) Post-emergent herbicidal tests with representative compounds of this invention were made using the following method.
(§3) An acetone solution of the test compound was prepared by mixing 750 mg of the compound, 220 mg of a nonionic surfactant and 25 ml of acetone. This solution was added to approximately 125 ml of water containing 156 mg of surfactant.
(§4) This test solution was uniformly sprayed on 2 similar pots of 24-day-old plants (approximately 15 to 25 plants per pot) at a dose of 33 mcg/cm^2. After the plants had dried, they were placed in a greenhouse and then watered intermittently at their bases, as needed. The plants were observed periodically for phytotoxic effects and physiological and morphological responses to the treatment. After 3 weeks, the herbicidal effectiveness of the compound was rated based on these observations. A 0-to-100 scale was used, 0 representing no phytotoxicity and 100 representing complete kill.

[7] = system: Lambsquarter (Chenopodium album); experiment: Post-emergent herbicidal test; assay type: in vivo; conditions: post-emergence, 504 h, 33 mcg/cm^2, 3 weeks, scale 0 (no phytotoxicity) to 100 (complete kill), read-out: Herbicidal Effectiveness (P)
Experimental: as §2, §3, §4

[8] = system: Mustard (Brassica arvensis); experiment: Post-emergent herbicidal test; assay type: in vivo; conditions: post-emergence, 504 h, 33 mcg/cm^2, 3 weeks, scale 0 (no phytotoxicity) to 100 (complete kill), read-out: Herbicidal Effectiveness (L)
Experimental: as §2, §3, §4

[9] = system: Pigweed (Amaranthus retroflexus); experiment: Post-emergent herbicidal test; assay type: in vivo; conditions: post-emergence, 504 h, 33 mcg/cm^2, 3 weeks, scale 0 (no phytotoxicity) to 100 (complete kill), read-out: Herbicidal Effectiveness
Experimental: as §2, §3, §4

[10] = system: Watergrass (Echinochloa Crusgalli); experiment: Post-emergent herbicidal test; assay type: in vivo; conditions: Echinochloa crus-galli, post-emergence, 504 h, 33 mcg/cm^2, 3 weeks, scale 0 (no phytotoxicity) to 100 (complete kill), read-out: Herbicidal Effectiveness (W)
Experimental: as §2, §3, §4

[11] = system: Wild Oats (Avena fatua); experiment: Post-emergent herbicidal test; assay type: in vivo; conditions: post-emergence, 504 h, 33 mcg/cm^2, 3 weeks, scale 0 (no phytotoxicity) to 100 (complete kill), read-out: Herbicidal Effectiveness (O)
Experimental: as §2, §3, §4

[12] = system: two spotted-mites (Tetramuchus urticae); experiment: Mite control test, adult mites; assay type: in vivo; conditions: 40-ppm leaf dip, adult mortality one day after treatment; 1440 min
Experimental: (§5) Compounds of the invention were tested for the control mites and mite eggs by the following procedure. Pinto bean leaves were invested with two spotted-mites (Tetramuchus urticae). The mites were then allowed to lay eggs on the leaves. After 48 hours, the leaves were dipped into a water/acetone solution containing a small amount of a non-ionic surfactant and 40-ppm of the test compound. The treated leaves were then maintained at 85° F. One day after treatment, the mortality of adult mites was determined, and 7 days after treatment, the egg mortality (non-hatching eggs) was determined.

[13] = system: mite eggs (Tetramuchus urticae); experiment: Mite control test, mite eggs; assay type: in vivo; conditions: 40-ppm leaf dip, egg mortality (non-hatching eggs) 7 days after treatment
Experimental: as §5

[14] = system: Phytophthora infestans; experiment: whole plant or invertebrate; assay type: in vivo; conditions: in Solanum lycopersicum, 168 h, read-out: Tomato Late Blight, % Control
[15] = system: Alternaria solani; experiment: Tomato Early Blight control; assay type: in vivo; conditions: 250-ppm spray, tomato seedlings, inoculated 1 day later
Experimental: Compounds of the invention were tested for the control of the Tomato Early Blight organism, Alternaria solani conidia. […] The tomato plans were sprayed with a 250-ppm solution of the test compound in an acetone-and-water solution containing a small amount of a non-ionic emulsifier. […] Percent disease control was based on the percent disease development on untreated check plants.

[16] = system: Botrytis cinerea; experiment: Mycelia Inhibition; assay type: cell-based; conditions: 25° C., 24 hours
Experimental: as §1

Row | Structure (SMILES) | percentage disease control (Botrytis cinerea) [1] | Powdery Mildew % Control [2] | Mycelia Inhibition, for 99% control (A) [3] | Mycelia Inhibition, for 99% control (F) [4] | Mycelia Inhibition, for 99% control (R) [5] | pest or weed control at 33 µg/cm2 [6] | pest or weed control at 33 µg/cm2 [7] | pest or weed control at 33 µg/cm2 [8] | pest or weed control at 33 µg/cm2 [9] | pest or weed control at 33 µg/cm2 [10] | pest or weed control at 33 µg/cm2 [11] | Mite Control, % [12] | Mite Eggs Control, % [13] | pest or weed control at 250 µg/mL [14] | Tomato Early Blight, % Control [15] | Mycelia Inhibition, for 99% control (B) [16]
1 | Cc1cc(Cl)ccc1N=c1ssnc1Cl [Compound 4, 4-chloro-5-(2-methyl-4-chlorophenylimino)-1,2,3-dithiazole] | 92% | 100% | > 1.7 micrograms/cm^2 | > 1.7 micrograms/cm^2 | 0.63 micrograms/cm^2 | 20% | 85% | 70% | 70% | 30% | 20% | 94% | 100% |  |  | 
2 | Cc1c(Cl)cccc1N=c1ssnc1Cl [Compound 21] |  | 100% | > 1.7 micrograms/cm^2 | > 1.7 micrograms/cm^2 | 1.1 micrograms/cm^2 | 0% | 20% | 45% | 50% | 15% | 0% | 90% | 99% | 63% | 44% | 1.3 micrograms/cm^2
